The assay has as its target T1, OGDH (Rattus norvegicus, UniProt Q5XI78).
T1 sequence (Q5XI78 41-1023): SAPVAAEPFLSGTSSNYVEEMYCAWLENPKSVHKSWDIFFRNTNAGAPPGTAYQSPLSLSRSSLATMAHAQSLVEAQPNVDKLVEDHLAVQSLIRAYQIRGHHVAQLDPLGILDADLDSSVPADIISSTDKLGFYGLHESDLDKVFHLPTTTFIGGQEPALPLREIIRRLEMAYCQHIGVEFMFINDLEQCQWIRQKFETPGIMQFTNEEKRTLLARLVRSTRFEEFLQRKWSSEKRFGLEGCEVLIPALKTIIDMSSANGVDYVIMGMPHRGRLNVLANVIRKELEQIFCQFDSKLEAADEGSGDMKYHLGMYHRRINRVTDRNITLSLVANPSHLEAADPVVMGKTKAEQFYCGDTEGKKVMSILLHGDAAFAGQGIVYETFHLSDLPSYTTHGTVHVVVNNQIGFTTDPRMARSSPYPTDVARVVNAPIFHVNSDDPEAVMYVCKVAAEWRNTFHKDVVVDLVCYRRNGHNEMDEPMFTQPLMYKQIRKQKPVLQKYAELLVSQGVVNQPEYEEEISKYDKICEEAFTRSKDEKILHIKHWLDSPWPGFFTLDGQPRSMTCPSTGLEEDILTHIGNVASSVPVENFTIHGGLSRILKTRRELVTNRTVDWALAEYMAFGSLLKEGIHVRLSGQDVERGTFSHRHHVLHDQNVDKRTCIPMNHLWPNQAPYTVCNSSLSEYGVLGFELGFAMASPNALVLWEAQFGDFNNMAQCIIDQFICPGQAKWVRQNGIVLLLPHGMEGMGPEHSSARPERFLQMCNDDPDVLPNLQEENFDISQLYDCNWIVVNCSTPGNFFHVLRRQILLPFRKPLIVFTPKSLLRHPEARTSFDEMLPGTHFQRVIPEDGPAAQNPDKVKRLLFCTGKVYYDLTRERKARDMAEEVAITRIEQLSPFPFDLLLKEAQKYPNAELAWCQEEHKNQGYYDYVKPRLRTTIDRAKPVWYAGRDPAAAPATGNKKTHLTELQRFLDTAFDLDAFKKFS
T1 sequence (Q01205 69-454 partner): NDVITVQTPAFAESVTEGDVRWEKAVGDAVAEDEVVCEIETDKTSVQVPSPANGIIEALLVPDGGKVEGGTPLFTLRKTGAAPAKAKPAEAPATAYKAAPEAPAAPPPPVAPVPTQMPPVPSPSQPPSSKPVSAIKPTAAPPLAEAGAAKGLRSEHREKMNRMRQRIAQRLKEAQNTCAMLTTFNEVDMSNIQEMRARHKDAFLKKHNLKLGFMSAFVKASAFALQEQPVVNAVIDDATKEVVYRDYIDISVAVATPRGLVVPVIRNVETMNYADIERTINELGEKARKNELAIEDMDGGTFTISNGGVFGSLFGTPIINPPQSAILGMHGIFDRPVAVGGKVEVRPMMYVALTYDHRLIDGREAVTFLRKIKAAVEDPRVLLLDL
T1 sequence (Q6P6R2 36-509 partner): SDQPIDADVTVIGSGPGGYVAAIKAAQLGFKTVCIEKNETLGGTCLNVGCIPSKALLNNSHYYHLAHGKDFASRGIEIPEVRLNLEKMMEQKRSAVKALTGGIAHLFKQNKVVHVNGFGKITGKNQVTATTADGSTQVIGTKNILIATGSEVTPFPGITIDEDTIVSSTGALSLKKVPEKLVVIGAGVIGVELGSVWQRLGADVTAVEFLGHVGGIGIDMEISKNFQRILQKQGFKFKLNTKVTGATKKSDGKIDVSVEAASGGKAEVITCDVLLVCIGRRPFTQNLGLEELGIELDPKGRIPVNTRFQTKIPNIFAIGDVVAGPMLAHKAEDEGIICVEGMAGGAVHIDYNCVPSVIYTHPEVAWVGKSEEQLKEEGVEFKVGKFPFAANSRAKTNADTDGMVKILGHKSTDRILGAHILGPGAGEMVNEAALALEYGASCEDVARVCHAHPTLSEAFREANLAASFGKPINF
The assay is described as follows: OADH reaction (OA saturation) catalyzed by the enzyme preparation from rat heart. Set-up: the tissue fractions with the complexes enriched to a degree allowing for a robust detection of the enzymatic activities, have been used; from tissue; host or cells: rat heart. The assay is classed as biochemical. The following applies: for Ki / Amax: OADH reaction, heart. The method, then: Enzymes catalyzing OGDH and OADH reactions were enriched from rat hearts and livers using polyethylene glycol precipitation, as previously described (Artiukhov et al., [2020]).
The enzyme activities were assayed in the medium (pH 7.0) containing 50 mM MOPS, 1 mM ThDP, 1 mM MgCl2, 1 mM CaCl2, 1 mM dithiothreitol 0.15 mM Coenzyme A, 0.25 mM NAD^+ and various concentrations of 2-oxo substrates (0–10 mM OG or OA) and their phosphonate analogs (0–5,000 μM SP, GP, or AP). Reactions were started by addition of the enzyme preparations to the assay media. The amount of enzyme preparations (0.074 mg protein for the preparation from liver and 0.023 mg protein for the preparation from heart) were chosen to induce the lowest reliably measured reaction rate (ΔA340 = 0.001/min) at 0.01 mM OA without the phosphonates.
Reaction rates were calculated from linear parts of the product accumulation curves (up to 10 min, dependent on the reaction rate), excluding the initial region, where mixing the reagents and solubilization of the preparation affected the optical density.
Non-linear regression was used to approximate the experimental dependences of the reaction rates on the OG or OA concentration according to the Michaelis-Menten equation ( a=Amax*[S]/Km+[S] ) or its sum ( a=Amax*[S]/Km+[S]+Amax,2*[S]/Km,2+[S] ). The former equation describes one type of the active sites. […] The assumption was based on the presence of the two enzymes, OGDH and OADH, in the employed preparations.
The kinetic data were also analyzed by linear regression, using the known methods of the linearization of the Michaelis-Menten equation in the Lineweaver-Burk ( 1/a=1/Amax(1+Km/[S]) ) and Eadie-Hofstee ( a=Amax−Kmv/[S] ) coordinates. Due to the several orders of magnitude difference in the values of Km,1 and Km,2, the linear regression required separate analysis of the dependencies in the intervals of the low and high concentrations of 2-oxoadipate. The Km and Amax values obtained in independent experiments using the non-linear and linear regression analyses of the experimental data, were averaged and presented as Mean ± Standard Error of Mean.
To determine the inhibition constants (Ki), the effective values of Kmeff and Amaxeff , calculated from the hyperbolic or linear approximations as described above, were plotted against the concentration of the inhibitors ([I]). The linear regression of the equation Kmeff/Amaxeff=Km/Amax(1+[I]/Ki) , (Cornish-Bowden, [1979]) was applied to find the Intercept (Km/Amax) and Slope (Km/(Amax*Ki)) of a dependence. The values of Ki were determined as the ratio of the corresponding Intercepts to the Slopes. In the two-site model, the Ki(1) and Ki(2) were calculated separately from the linear approximations of Km,1eff/Amax,1eff vs. [I] and Km,2eff/Amax,2eff vs. [I] dependences, respectively. The standard errors of Ki were determined from means and standard errors of the Intercepts and the Slopes, using the previously described formula for standard deviation of a fraction (Bunik et al., [1999]). The Ki values obtained from the non-linear and linear regression analyses of the experimental data were averaged and presented as Mean ± Standard Error of Mean.

[1] abbreviates: 0–10 mM OA, Michaelis-Menten, read-out: Ki, MM.
Setting [2] is: Eadie-Hofstee, read-out: Ki, EH.
[3] abbreviates: Lineweaver-Burk, read-out: Ki, LB.
The mark [4] stands for this setting: average of MM, LB, EH, read-out: Ki, Average.

Consider 4 compounds from paper PMC7835950 (Frontiers in Chemistry, 2021).

Where two headings read alike, the source gives them in different places.

The Ki is a dissociation constant, usually derived from enzyme kinetics or from competition with a known ligand. For the compound `O=C(O)CCCC(=O)P(=O)(O)O` [GP, glutaryl phosphonate], the inhibition constant Ki under setting [1] was 3.8 ± 0.1 µM, the Ki under setting [2] came out at 3.4 ± 0.5 µM, the Ki under setting [3] came to 1.1 ± 0.2 µM and the Ki under setting [4] stood at 2.8 ± 0.8 µM. Besides, the Amax was 0.105 ± 0.003 µmol/min per mg of protein ([I] 2 µM), 0.131 ± 0.002 µmol/min per mg of protein ([I] 10 µM), 0.139 ± 0.010 µmol/min per mg of protein ([I] 50 µM) and 0.103 ± 0.018 µmol/min per mg of protein ([I] 200 µM).
With `O=C(O)CCCCC(=O)P(=O)(O)O` [AP, adipoyl phosphonate], the inhibition constant (Ki) was determined as 49 ± 8 µM under setting [1], 40 ± 7 µM under setting [2], 58 ± 8 µM under setting [3] and 49 ± 5 µM under setting [4]. Besides, the Amax reads like this: ([I] 0.5 µM) 0.101 ± 0.002 µmol/min per mg of protein; ([I] 2 µM) 0.096 ± 0.002 µmol/min per mg of protein; ([I] 10 µM) 0.098 ± 0.002 µmol/min per mg of protein; ([I] 50 µM) 0.109 ± 0.002 µmol/min per mg of protein; ([I] 200 µM) 0.116 ± 0.002 µmol/min per mg of protein.
As for `O=C(O)CCC(=O)P(=O)(O)O` [SP, succinyl phosphonate], the Ki turned out to be 10.2 ± 0.2 µM under setting [1], 6.3 ± 0.1 µM under setting [2], 4.7 ± 0.3 µM under setting [3] and 7.1 ± 1.6 µM under setting [4]. In addition, the Amax is, setting by setting: ([I] 10 µM) 0.109 ± 0.001 µmol/min per mg of protein; ([I] 50 µM) 0.109 ± 0.006 µmol/min per mg of protein; ([I] 200 µM) 0.106 ± 0.004 µmol/min per mg of protein; ([I] 1000 µM) 0.075 ± 0.123 µmol/min per mg of protein.
For `O=C(O)CCCC(=O)C(=O)O` [OA, 2-oxoadipate], the “Amax, OA saturation” value (heart preparation) is reported as 0.102 ± 0.008 μmol/min per mg of protein.
